Test results: article PMC9671962 (Communications Biology, 2022)
Several values for one entry are separate records, joined by “and”; a condition that tells them apart may be missing. Identical values can stand only once.

Tests used:
PARP1 = assay: Clinical PET imaging / first-in-human dosimetry of [^18F]FTT and extrapolation to [^211At]PTT; assay type: in vivo
COG-N-440x = assay: Pre-clinical efficacy study, COG-N-440x PDX; assay type: in vivo; conditions: single mouse
Experimental: (§1) Patient demographics and genetic characteristics are listed in (Supplementary Tables 1, 2)[17]. The maximum tolerated dose (MTD) was determined to be 36 MBq/kg administered by intra-peritoneal injection twice weekly for a total of 4 dose fractions and this fractionated regimen was used in all studies (Supplementary Fig. 1)[18],[19]. […] Nine of 11 PDX models were MYCN amplified (Fig. 1b), which is a hallmark of high-risk neuroblastoma. Tumor response was measured as the maximum percent decrease in tumor volume after treatment and event-free survival (EFS) was measured by the area over the curve method with tumor events pre-defined by tumor growth exceeding 2 cm[3],[18].
(§2) The use of 2 mice per arm was based on the previously reported statistical analysis. PDX tumors were implanted into the right flank of 5 to 6-weeks old female mice weighing about 20–25 grams. […] Two additional dose levels of 12, and 24 MBq/kg/fraction were assessed in a subset of models and were administered as stated above. In two models treated at the 24 MBq/kg/fraction dose level we re-challenged tumor response at the time of tumor progression with an additional 4 dose fractions at 24 MBq/kg/fraction given twice weekly. Doses were prepared in 500 µL total volume. An equal volume of saline was used for the vehicle group. Tumors were measured using a digital caliper at the initiation of the study and two times per week during the treatment period. Tumor volumes were calculated as volume = ([…]∗0.5236)/1000. Weights were obtained twice weekly and mice were monitored daily for signs of toxicity. […] Tumor response was assessed by best response defined as greatest reduction in tumor volume following the last dose and is presented as percent change in tumor volume. Event-free survival was determined by area over the curve method that calculates the time to tumor event, which was defined as tumors reaching or exceeding a size ≥ 2 cm^3.
(§3) Animal studies were performed in female mice due to the lack of sex-related differences for [^211At]PTT tolerability from initial dose response studies performed in female and male mice. Female mice were chosen due to their underlying behavior towards other study subjects that reduced nonstudy-related causes for decreased wellness. Pre-clinical efficacy studies were performed through “single mouse testing” to more closely recapitulate a clinical trial. […] Number size for treatment groups was determined by model tumor growth reproducibility, which was previously shown to have less than 5% normal variation with at least two animals. Statistical tests for tumor response and event-free survival (EFS) were performed as a grouped analysis that included all tumor models treated at each respective dose level (n = 2 per model per dose level). Statistical differences between treatment groups for tumor response was performed by paired-model T-test that compared reduction in tumor volume for the 36 MBq/kg dose level vs. 24 MBq/kg or 12 MBq/kg. Event free survival was measured by area over the curve method to quantify time to event, which was set as tumor growth exceeding 2 cm[3],[19]. Differences in EFS were tested across all treated models for each respective dose level, and against untreated controls, by paired-model ANOVA analysis. Associations of drug target expression and response were performed by linear regression analysis of EFS and PARP1 mRNA expression. Genetic signatures were visually presented as a function of EFS and no statistical tests were applied. Blood and marrow toxicity studies were performed with n = 5 sample sizes and powered to detect >20% differences between untreated controls and treated animals. Results were tested for significance by one-way ANOVA comparison from untreated controls. Marrow colony formation assays were performed in replicates of 2 for each mouse subject, dependent on marrow isolation, and all replicates are included in final analyses. […]

COG-N-453x = assay: Pre-clinical efficacy study, COG-N-453x PDX; assay type: in vivo; conditions: single mouse
Experimental: as §1, §2, §3

[1] = tested on: platelets, white blood cells, lymphocytes, neutrophils; assay: Hematological toxicity by complete blood counts; assay type: in vivo, CB-17 SCID mice; set-up: Neutrophils / Lymphocytes / WBC: unit not given here; conditions: for Lymphocytes / Neutrophils / Platelets / WBC: 72 hours post-treatment, single mouse
Experimental: (§4) Toxicity studies were done in nontumor bearing CB-17 SCID mice (Taconic Biosciences). […] Each arm had n = 10 mice (5 male, 5 female mice). […] The vehicle group received an equal volume of saline (placebo). Weights were obtained twice weekly and mice were monitored daily for signs of toxicity. […] On target hematological and marrow toxicity which was evaluated by complete blood counts and marrow colony formation assay. An additional study was performed under identical conditions to evaluate additive dose effects. […] Each treatment group was composed of equal numbers of male and female mice to rule out gender-specific effects (n = 4 per treatment group per time point). Mice were followed for signs of acute toxicity for 2 weeks and 4 weeks before euthanasia. An additional group (n = 4) treated at 36 MBq/kg was euthanized after 72 h to assess early signs of toxicity by colony formation assays. This time course was chosen to best capture the nadir of bone marrow suppression. After euthanasia, blood was collected and femurs were dissected and processed for histopathology and bone marrow evaluation.
Animals were monitored weekly for weight and daily for signs of distress until the time of euthanasia. […] Mice were anesthetized with mixed inhalation isoflurane/oxygen under a nosecone. Terminal cardiac puncture was performed and peripheral blood was transferred to K2EDTA BD Microtainer tubes (BD, San Antonio, TX). Sample volume injected was 20 µL and was pre-specified using the mouse protocol on the instrument.

[2] = assay type: in vivo; conditions: CB57/BL6 mice; twice weekly, total of 4 dose fractions
Experimental: as §4
Supplementary Fi g u re 4: To le r a b ilit y studies to determine hematological and marrow toxicity of
[211At]PTT in CB57BL6 mice. a) Maximum tolerated dose finding studies fo r [211At]PTT administered
as 4 dose fractions given twice weekly in CB57BL6 mice. b) Complete blood counts assessed at 72 […]

[3] = 12 MBq/kg/fraction x 4 fractions
[4] = 24 MBq/kg/fraction x 4 fractions
[5] = 36 MBq/kg/fraction x 4 fractions

O=C1NCCn2c(-c3ccc([211At])cc3)nc3cccc1c32 [[^211At]PTT, Astatine-211-parthanatine]
extrapolated equivalent dose to the kidneys (PARP1; RBE of 5 for alpha radiation): approximately 2 mSv/MBq
estimated SUVmax in neuroblastoma tumors (PARP1; estimate from [^18F]FTT clinical data and pre-clinical uptake): approximately 10
rough estimate of absorbed tumor dose (PARP1; patient, biological half-life 5.1 hr and SUVmax of 10): 0.17 Gy per MBq/kg
estimated renal absorbed dose (PARP1; using human biodistribution results of [^18F]FTT in adults): 0.25–0.41 mGy/MBq
EFS by AOC method (COG-N-440x; [3]): 28.3679 days and 26.6227 days
Tumor response (% growth from study initiation at ~ 200 mm3) (COG-N-440x; [3]): -72.727% and -75.758%
EFS by AOC method (COG-N-440x; [4]): 50.2168 days and 42.5399 days
Tumor response (% growth from study initiation at ~ 200 mm3) (COG-N-440x; [4]): -95.833% and -100%
EFS by AOC method (COG-N-440x; [5]): 78.8444 days and 65.1924 days
Tumor response (% growth from study initiation at ~ 200 mm3) (COG-N-440x; [5]): -100%
EFS by AOC method (COG-N-453x; [3]): 19.5598 days and 22.4877 days
Tumor response (% growth from study initiation at ~ 200 mm3) (COG-N-453x; [3]): 25% and -63.158%
EFS by AOC method (COG-N-453x; [4]): 43.7943 days and 33.4459 days
Tumor response (% growth from study initiation at ~ 200 mm3) (COG-N-453x; [4]): -100% and -90.323%
EFS by AOC method (COG-N-453x; [5]): 48.6067 days and 52.9347 days
Tumor response (% growth from study initiation at ~ 200 mm3) (COG-N-453x; [5]): -100%
thrombocytopenia ([1]; 3 or less dose fractions at the 36 MBq/kg dose level): did not result in thrombocytopenia
Lymphocytes ([1]; 36 MBq/kg x 4 dose fractions): 0.28 and 0.26 and 0.38 and 0.27
Neutrophils ([1]; 36 MBq/kg x 4 dose fractions): 0.42 and 0.22 and 0.16 and 0.34
Platelets ([1]; 36 MBq/kg x 4 dose fractions): 263 K/uL and 99 K/uL and 201 K/uL and 158 K/uL and 200 K/uL
WBC ([1]; 36 MBq/kg x 4 dose fractions): 0.78 and 0.26 and 0.58 and 0.62 and 0.7
Lymphocytes ([1]; 48 MBq/kg x 4 dose fractions): 0.14 and 0.29 and 0.08 and 0.12 and 0.25
Neutrophils ([1]; 48 MBq/kg x 4 dose fractions): 0.24 and 0.18 and 0.26 and 0.09 and 0.13
Platelets ([1]; 48 MBq/kg x 4 dose fractions): 200 K/uL and 160 K/uL and 240 K/uL and 190 K/uL and 133 K/uL
WBC ([1]; 48 MBq/kg x 4 dose fractions): 0.5 and 0.6 and 0.36 and 0.26 and 0.48
Lymphocytes ([1]; 60 MBq/kg x 4 dose fractions): 0.28 and 0.29 and 0.41 and 0.11
Neutrophils ([1]; 60 MBq/kg x 4 dose fractions): 0.41 and 0.09 and 0.71 and 0.08
Platelets ([1]; 60 MBq/kg x 4 dose fractions): 112 K/uL and 166 K/uL and 138 K/uL and 165 K/uL and 116 K/uL
WBC ([1]; 60 MBq/kg x 4 dose fractions): 0.14 and 0.76 and 0.44 and 1.42 and 0.22
Hematological toxicity versus control ([1]; 72 hours after the final dose fraction, 36, 48, 60 MBq/kg/fraction x 4): significant reductions in platelets, white blood cells, and lymphocytes at all dose levels
time of full recovery from hematological and marrow toxicity ([1]; post-therapy at the MTD): ≤ 4 weeks
time of full recovery of peripheral blood counts ([1]; post-treatment, 2 or 3 dose fractions of 36 MBq/kg): 4 weeks
Effect on neutrophils ([1]; treatment with [^211At]PTT): largely unaffected
MTD [2]: 48 MBq/kg/fraction
